The numbers were not newly measured in patent US20110271957A1, “Delivery of estrogen and bioequivalents thereof via the pulmonary tract” (BATTELLE MEMORIAL INSTITUTE, priority 2010, published 2011), which cites them from elsewhere.

For the data set the following is noted: intranasal delivery route.

As for `C[C@]12CC[C@@H]3c4ccc(O)cc4CC[C@H]3[C@@H]1CC[C@@H]2O` [estradiol, 17β-estradiol], the “bioavailability of administered estradiol” value was “about 25%”.
